According to patent US11925629B2, “Heterocyclic inhibitors of ERK1 and ERK2 and their use in the treatment of cancer” (Asana Biosciences, LLC, priority 2015, dated 2024):
Read-outs that look alike come from different tables or passages of the source.

Columns and labels:
[1] = biological target: T1, ERK2 (Homo sapiens, UniProt P28482); experiment: ERK2 HTRF (biochemical) assay
T1 construct: purchased Jubilant Biosys
Experimental: (§1) ERK1 and ERK2 HTRF (Biochemical) Assays
These assays employed a homogeneous time resolved fluorescence (HTRF) technique. The compounds were serially diluted by half-log with concentrations ranging from 0.0005 to 10 uM in the assay buffer (50 mM Tris pH=7.5, 1 mM EGTA, 2 mM DTT, 10 mM MgCl2, 0.100 Tween-20) and 20 uL of substrate-ATP mix [1 uM Biotin-LC-Myelin Basic Protein (MBP) derivatized Peptide (Anaspec)-24 uM ATP (Sigma)] was added to each well of the assay plate. Then 10 uL of enzyme mix [25 nM ERK1 or ERK2 (Jubilant Biosys) in assay buffer] was added to each well. The plate was incubated at room temperature for 60 min with shaking. The HTRF mix [625 nM LANCER Ultra Europium-anti-phospho-MBP (Perkin Elmer) and 2 nM Phycolink® Streptavidin-Allophycocyanin (SA-APC) (Prozyme) in HTRF buffer (50 mM Tris-HCl pH=7.5, 100 mM NaCl, 0.1% BSA, 0.05% Tween20, 0.5 mM EDTA)] was prepared and 75 uL of this mix was added to the HTRF plate. After incubation for 60 min at room temperature, 10 uL of the reaction mixture was transferred to the HTRF assay plate and incubated for 45 min at room temperature with shaking. Plate was read using Pherastar in HTRF mode (excitation 337 nm, emission 665 & 620 nm). The IC50 values (half maximal inhibitory concentration values) were subsequently determined using a sigmoidal dose-response curve (variable slope) in GraphPad Prism® 5 software.

[2] = tested on: HCT116 (colorectal carcinoma, K Ras G13D) cells; experiment: Cell proliferation (Alamar Blue) assay, HCT116; assay type: cell-based, human; conditions: Homo sapiens, HCT-116, HCT116 cells
In short: (§2)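 Fluorescence read-out (ex 540 nm, em 590 nm) after 1-3 h with 1× Alamar Blue, following 72 h compound exposure at 37° C./5% CO2. Compounds tested at typically 0.0005 to 10 uM, 3-fold steps; IC50 by sigmoidal dose-response (variable slope).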

[3] = biological target: T2, ERK1 (Homo sapiens, UniProt P27361); experiment: ERK1 HTRF (biochemical) assay
T2 construct: purchased Jubilant Biosys
T2 sequence (P27361 whole entry): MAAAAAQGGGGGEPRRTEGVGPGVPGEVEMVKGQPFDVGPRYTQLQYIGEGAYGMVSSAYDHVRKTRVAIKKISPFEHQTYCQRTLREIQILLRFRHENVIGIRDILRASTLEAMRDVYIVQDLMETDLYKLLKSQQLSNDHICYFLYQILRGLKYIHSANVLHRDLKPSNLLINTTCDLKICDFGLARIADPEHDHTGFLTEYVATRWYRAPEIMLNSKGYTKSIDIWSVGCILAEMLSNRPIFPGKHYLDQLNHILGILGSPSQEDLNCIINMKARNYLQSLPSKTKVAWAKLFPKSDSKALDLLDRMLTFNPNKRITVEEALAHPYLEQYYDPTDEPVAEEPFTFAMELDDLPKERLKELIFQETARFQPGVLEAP
Experimental: as §1
These assays employed a homogeneous time resolved fluorescence (HTRF) technique. […] The plate was incubated at room temperature for 60 min with shaking. […] The IC50 values (half maximal inhibitory concentration values) were subsequently determined using a sigmoidal dose-response curve (variable slope) in GraphPad Prism® 5 software.

[4] = tested on: HT-29 (colorectal carcinoma, B-RafV600E) cells; experiment: Cell proliferation (Alamar Blue) assay, HT-29; assay type: cell-based, human; conditions: Homo sapiens, HT-29, HT29 cells
In short: as §2

[5] = tested on: phosphorylation of RSK1(S380) (the downstream target of ERK1/2); experiment: Phospho-RSK1(S380) ELISA assay in HT-29 cells; assay type: cell-based, human; conditions: Homo sapiens, HT-29, HT29 cells, read-out: Mechanistic Cell Assay RSK1 Phos HT29 IC50
In short: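 IC50 values derive from a variable-slope sigmoidal fit of sandwich-ELISA signal (450 nm) for RSK1 Ser380 phosphorylation. The cells were B-RafV600E HT-29 colorectal line, exposed to serially diluted compound for 2 h after overnight seeding, then lysed at 4° C.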

[6] = tested on: phospho-RSK (the downstream target of ERK1/2); experiment: Pharmacodynamic assay, phospho-RSK in A375 tumor samples; assay type: in vivo, mice; conditions: Mus musculus, A-375; A375 tumor samples harvested at 1 h after dosing at 50 mg/kg PO, compared to vehicle control
Experimental: (§3) Foxn1 nu/nu strain of female mice (obtained from Charles River Laboratories, USA), 8-10 weeks of age, body weight range 23-25 g, were used for the tumor xenograft efficacy studies. Human cancer cell lines (such as melanoma A375, colorectal HT29, pancreatic BxPC3, colorectal HCT116, and lung A549) were first grown in vitro, and then about five million (5×10^6) of these cells in 100 μL of serum free medium were mixed with an equal amount of matrigel, and the entire mixture was injected subcutaneously at the right flank region of mice. The tumors were measured with Vernier calipers periodically after the first week of injection. When the tumor volume reached 120-150 mm^3 (about 3-4 weeks after injection) the animals were randomized into different groups so that their tumor volume was approximately the same in all groups.
For PO dosing, the compounds were prepared in a formulation containing 0.5% Methyl cellulose and 0.01% Tween 80. For IV, SC, or IP dosing, the compounds were prepared in 6% solutol-ethanol (1:1), 6% DMSO and 88% saline. Animals were dosed with compounds prepared in specific formulations via PO, IP or SC route either QD or BID at the required doses. Tumors size and body weights were measured twice or thrice in a week. Tumors were harvested at the end of the study after euthanizing the animals according to approved protocols. […]

[7] = tested on: human melanoma xenograft model (A375) harboring B-RAF V600E mutation; experiment: A375 human melanoma xenograft model, tumor growth inhibition; assay type: in vivo, mice; conditions: 50 mg/kg BID orally for 19 days
Experimental: as §3, with “When the tumor volume reached 120-150 mm^3 (about 3-4 weeks after injection) the animals were randomized into different groups so that their tumor volume was approximately the same in all groups.” left out
For PO dosing, the compounds were prepared in a formulation containing 0.5% Methyl cellulose and 0.01% Tween 80. […] Tumors size and body weights were measured twice or thrice in a week. […]
Changes in tumor volume (Δ volumes) for each treated (T) and control (C) group were calculated by subtracting the mean tumor volume on the first day of treatment (starting day) from the mean tumor volume on the specified observation day. […] Percentage tumor growth inhibition was calculated as [100−% T/C]. Percentage body weight change was calculated as [(Body weight on specified observation day−Body weight on starting day)/Body weight on starting day]×100. […]

T1 sequence (P28482 whole entry): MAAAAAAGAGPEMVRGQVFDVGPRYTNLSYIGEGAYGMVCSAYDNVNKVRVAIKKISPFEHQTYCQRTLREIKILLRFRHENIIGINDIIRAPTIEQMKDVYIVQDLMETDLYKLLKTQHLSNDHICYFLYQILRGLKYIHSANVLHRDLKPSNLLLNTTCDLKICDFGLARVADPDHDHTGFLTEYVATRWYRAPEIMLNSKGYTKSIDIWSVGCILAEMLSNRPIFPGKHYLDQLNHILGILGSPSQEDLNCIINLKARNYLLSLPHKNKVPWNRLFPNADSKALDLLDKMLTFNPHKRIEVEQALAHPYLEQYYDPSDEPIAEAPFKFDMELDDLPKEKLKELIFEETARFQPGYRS

## Cc1cnc(NC2CCOCC2)nc1-n1cnc(C(=O)NCc2cc(F)cc(Cl)c2CO)c1 [Compound #297, N-(3-Chloro-5-fluoro-2-(hydroxymethyl)benzyl)-1-(5-methyl-2-((tetrahydro-2H-pyran-4-yl)amino)pyrimidin-4-yl)-1H-imidazole-4-carboxamide]
[1]; HTRF biochemical assay
  IC50: ≤ 50 nM
[2]
  IC50: 100 to 250 nM
[3]; HTRF biochemical assay
  IC50: < 50 nM
[4]
  IC50: ≤ 100 nM
[5]; phospho-RSK1(S380)
  IC50: 250 to 500 nM

## Cc1cnc(Nc2ccccn2)cc1-n1ccc(C(=O)NC(CO)c2ccccc2)c1 (centres unmarked) [Example 149, N-(2-hydroxy-1-phenylethyl)-1-(5-methyl-2-(pyridin-2-ylamino)pyridin-4-yl)-1H-pyrrole-3-carboxamide]
[1]; HTRF biochemical assay
  IC50: ≤ 50 nM
[2]
  IC50: > 2500 nM
[3]; HTRF biochemical assay
  IC50: 50 to 100 nM
[4]
  IC50: > 2500 nM
[5]; phospho-RSK1(S380)
  IC50: > 2500 nM

## Cc1cnc(NC2CCOCC2)nc1-n1cnc(C(=O)NC(CO)c2cccc(Cl)c2)c1 (centres unmarked) [Example 201]
[6]
  inhibition at 50 mg/kg: ~66%

## Cc1cnc(NC2CCOCC2)nc1-n1cnc(C(=O)N[C@H](CO)c2cccc(Cl)c2)c1 [Example 211]
[6]
  inhibition at 50 mg/kg: ~84%

## Cc1cnc(NC2CCOCC2)nc1-n1cnc(C(=O)NC(CN)c2cc(F)cc(Cl)c2)c1 (centres unmarked) [Example 236, N-(2-amino-1-(3-chloro-5-fluorophenyl)ethyl)-1-(5-methyl-2-((tetrahydro-2H-pyran-4-yl)amino)pyrimidin-4-yl)-1H-imidazole-4-carboxamide]
[1]; HTRF biochemical assay
  IC50: ≤ 50 nM
[2]
  IC50: ≤ 100 nM
[3]; HTRF biochemical assay
  IC50: < 50 nM
[4]
  IC50: ≤ 100 nM
[5]; phospho-RSK1(S380)
  IC50: ≤ 100 nM

## Cc1cnc(N[C@H]2CCOC2)nc1-n1cnc(C(=O)N[C@H](CN)c2cccc(Cl)c2)c1 [Example 255, N-((S)-2-amino-1-(3-chlorophenyl)ethyl)-1-(5-methyl-2-(((S)-tetrahydrofuran-3-yl)amino)pyrimidin-4-yl)-1H-imidazole-4-carboxamide]
[2]
  IC50: ≤ 100 nM
[4]
  IC50: ≤ 100 nM
[5]; phospho-RSK1(S380)
  IC50: ≤ 100 nM
[7]
  body weight loss: no significant body weight loss

## Cc1cnc(N[C@H]2CCOC2)nc1-n1cnc(C(=O)NC(CN)c2cc(F)cc(Cl)c2)c1 (stereo partly drawn) [Example 282, N-(2-amino-1-(3-chloro-5-fluorophenyl)ethyl)-1-(5-methyl-2-(((S)-tetrahydrofuran-3-yl)amino)pyrimidin-4-yl)-1H-imidazole-4-carboxamide]
[1]; HTRF biochemical assay
  IC50: ≤ 50 nM
[2]
  IC50: ≤ 100 nM
[3]; HTRF biochemical assay
  IC50: < 50 nM
[4]
  IC50: ≤ 100 nM
[5]; phospho-RSK1(S380)
  IC50: ≤ 100 nM

## Cc1cnc(N[C@H]2CCOC2)nc1-n1cnc(C(=O)NCc2cccc(Cl)c2F)c1 [Example 315, (S)-N-(3-chloro-2-fluorobenzyl)-1-(5-methyl-2-((tetrahydrofuran-3-yl)amino)pyrimidin-4-yl)-1H-imidazole-4-carboxamide]
[1]; HTRF
  IC50: ≤ 50 nM
[2]
  IC50: > 2500 nM
[3]; HTRF
  IC50: < 50 nM
[4]
  IC50: > 2500 nM
[5]
  IC50: > 2500 nM

## Cc1cnc(N[C@H]2CCOC2)nc1-n1cnc(C(=O)NCc2c(F)cccc2F)c1 [Example 316, (S)-N-(2,6-difluorobenzyl)-1-(5-methyl-2-((tetrahydrofuran-3-yl)amino)pyrimidin-4-yl)-1H-imidazole-4-carboxamide]
[1]; HTRF
  IC50: 100 to 500 nM
[2]
  IC50: > 2500 nM
[3]; HTRF
  IC50: 500 to 2500 nM
[4]
  IC50: > 2500 nM
[5]
  IC50: > 2500 nM

## Cc1cnc(N[C@H]2CCOC2)nc1-n1cnc(C(=O)NCc2cccc(C(F)(F)F)c2Cl)c1 [Example 317, (S)-N-(2-chloro-3-(trifluoromethyl)benzyl)-1-(5-methyl-2-((tetrahydrofuran-3-yl)amino)pyrimidin-4-yl)-1H-imidazole-4-carboxamide]
[1]; HTRF
  IC50: ≤ 50 nM
[2]
  IC50: > 2500 nM
[3]; HTRF
  IC50: 50 to 100 nM
[4]
  IC50: > 2500 nM
[5]
  IC50: > 2500 nM

## Cc1cnc(N[C@H]2CCOC2)nc1-n1cnc(C(=O)NCc2cccc(Cl)c2Cl)c1 [Example 319, (S)-N-(2,3-dichlorobenzyl)-1-(5-methyl-2-((tetrahydrofuran-3-yl)amino)pyrimidin-4-yl)-1H-imidazole-4-carboxamide]
[1]; HTRF
  IC50: ≤ 50 nM
[2]
  IC50: > 2500 nM
[3]; HTRF
  IC50: < 50 nM
[4]
  IC50: > 2500 nM
[5]
  IC50: 500 to 2500 nM

## Cc1cnc(N[C@H]2CCOC2)nc1-n1cnc(C(=O)NCc2ccc(C(F)(F)F)c(F)c2)c1 [Example 321, (S)-N-(3-fluoro-4-(trifluoromethyl)benzyl)-1-(5-methyl-2-((tetrahydrofuran-3-yl)amino)pyrimidin-4-yl)-1H-imidazole-4-carboxamide]
[1]; HTRF
  IC50: ≤ 50 nM
[2]
  IC50: > 2500 nM
[3]; HTRF
  IC50: 50 to 100 nM
[4]
  IC50: > 2500 nM
[5]
  IC50: 500 to 2500 nM

## Cc1cnc(N[C@H]2CCOC2)nc1-n1cnc(C(=O)NCc2c(Cl)cccc2C(F)(F)F)c1 [Example 322, (S)-N-(2-chloro-6-(trifluoromethyl)benzyl)-1-(5-methyl-2-((tetrahydrofuran-3-yl)amino)pyrimidin-4-yl)-1H-imidazole-4-carboxamide]
[1]; HTRF
  IC50: 500 to 2500 nM
[2]
  IC50: > 2500 nM
[3]; HTRF
  IC50: 500 to 2500 nM
[4]
  IC50: > 2500 nM
[5]
  IC50: > 2500 nM

## Cc1cccc(CNC(=O)c2cn(-c3nc(N[C@H]4CCOC4)ncc3C)cn2)c1 [Example 323, (S)-1-(5-methyl-2-((tetrahydrofuran-3-yl)amino)pyrimidin-4-yl)-N-(3-methylbenzyl)-1H-imidazole-4-carboxamide]
[1]; HTRF
  IC50: ≤ 50 nM
[2]
  IC50: > 2500 nM
[3]; HTRF
  IC50: < 50 nM
[4]
  IC50: > 2500 nM
[5]
  IC50: 250 to 500 nM

## Cc1cnc(N[C@H]2CCOC2)nc1-n1cnc(C(=O)NCc2ccc(Cl)c(F)c2)c1 [Example 324, (S)-N-(4-chloro-3-fluorobenzyl)-1-(5-methyl-2-((tetrahydrofuran-3-yl)amino)pyrimidin-4-yl)-1H-imidazole-4-carboxamide]
[1]; HTRF
  IC50: ≤ 50 nM
[2]
  IC50: > 2500 nM
[3]; HTRF
  IC50: < 50 nM
[4]
  IC50: > 2500 nM
[5]
  IC50: 500 to 2500 nM

## Cc1cnc(N[C@H]2CCOC2)nc1-n1cnc(C(=O)NCc2cccc(C(C)(C)C)c2)c1 [Example 327, (S)-1-(5-methyl-2-((tetrahydrofuran-3-yl)amino)pyrimidin-4-yl)-N-(3-tert-butylbenzyl)-1H-imidazole-4-carboxamide]
[1]; HTRF
  IC50: ≤ 50 nM
[2]
  IC50: > 2500 nM
[3]; HTRF
  IC50: < 50 nM
[4]
  IC50: 500 to 2500 nM
[5]
  IC50: 100 to 250 nM
